Reference: US20220364056A1, “SHORT-CHAIN FATTY ACID PENTANOATE AS ENHANCER FOR CELLULAR THERAPY AND ANTI-TUMOR THERAPY” (PHILIPPS-UNIVERSITÄT MARBURG, priority 2019, published 2022)

Key:
human CD8+ T lymphocytes = human CD8+ T lymphocytes differentiated into CTLs, flow cytometry; format: cell-based
Protocol: (A and B) CD8^+ T cells isolated from spleens and LNs were polarized under Tc17-inducing conditions and treated with pentanoate for 3 days. Representative contour plots (A) and bar graphs (B) indicate the frequency of IL-17^+ and IFN-γ+ cells. Three similar experiments were performed. (C and D) CD8^+ T cells isolated from spleens and LNs were polarized under Tc9-inducing conditions and treated with pentanoate for 3 days. Representative contour plots (C) and bar graphs (D) are showing the frequency of IL-9^+ and IFN-γ+ cells. Three similar experiments were performed. (E and F) The expression of granzyme B, IFN-γ and Eomes in pentanoate-treated human CTLs was analysed by flow cytometry. Five independent experiments were performed (E). For Eomes, mean fluorescence intensity (MFI) values are shown (F, n=3).
(A) CD8^+ T cells isolated from peripheral blood of healthy donors were differentiated into CTLs in presence or absence of indicated HDACi. Representative contour plots and dot plots indicate the frequency of TNF-α+ and IFN-γ^+ cells. Data points in the graphs represent individual donors (n=4, performed in 4 independent experiments) (B-G) Phenotyping of pentanoate-treated ROR1-specific CD8^+ CAR T cells (CARROR1 T cells). (B) Experimental setup for the functional analysis is shown. (C) The cytokine secretion (IFN-γ and TNF-α) was analysed in supernatants of pentanoate-treated CARROR1 T cells by ELISA. (D) The surface expression of CD25 was measured by flow cytometry. (E) The secretion of IL-2 was detected in supernatants of CARROR1 T cells by ELISA. (F) Proliferation of CARROR1 T cells was determined by CFSE labelling. CARROR1 T cells pre-treated with pentanoate were stained with CFSE and subsequently co-cultured with […] cells in the absence of pentanoate. CD8^+ T cells without the CAR construct were used as mock control cells. […] The percentage of lysed target cells was determined in 1 hour intervals (effector-to-target cell (E:T) ratio=2.5:1). […]

[1] = system: promoter region of Ifnγ, Tbx21 and Eomes; test: pan-H4Ac ChIP at CTL-characteristic loci; format: cell-based, mice; conditions: 24 hours of treatment
Protocol: (A) Experimental design for the treatment of CTLs with the water-soluble fraction of intestinal content derived from SPF or GF mice. (B and C) Frequencies of IFN-γ- and TNF-α-producing CTLs treated with the extract from luminal content derived from indicated organs. Representative results of two experiments are shown (n=3). (D) ELISA was performed to measure the secretion of TNF-α by CLTs treated as shown in (A). (E) Quantitative measurement of total SCFA amounts in fecal samples of SPF and GF mice (n=5). (F and G) The percentage of IFN-γ^+ TNF-α^+ CTLs treated with the indicated SCFAs for three days (n=3, one of three independent experiments is shown). (H) The secretion of TNF-α from CTLs treated with SCFAs was determined by ELISA (n=3, one of two independent experiments is shown). (I) The fluorogenic HDAC assay was applied to measure the HDAC inhibitory activity of SCFAs on CTLs. The value for unstimulated CTLs was arbitrarily set to 1.0. Four independent experiments were performed. (J and K) Representative contour plots (J) and bar graphs (K) showing the frequency of IFN-γ+ and TNF-α+ cells after pentanoate (2 mM) or VPA (0.5 mM) administration. Three similar experiments were performed. (L and M) The frequency of Eomes- and T-bet-expressing CTLs treated with pentanoate (2 mM) or VPA (0.5 mM) for three days was analyzed by flow cytometry (n=4). […]

[2] = system: ROR1-expressing Panc02 pancreatic tumor cells (PancROR1); test: transfer of pretreated ROR1-specific CAR T cells into mice bearing s.c. PancROR1 tumors; format: in vivo
[3] = system: murine ROR1-recognizing CAR T lymphocytes; test: murine ROR1-specific CAR T cells stimulated with HDACi, ELISA and flow cytometry; format: cell-based; conditions: three days of stimulation
Protocol: (A) Experimental design for the analysis HDACi-treated ROR1-specific CD8^+ CAR T cells (CARROR1+HDAC). (B and C) The production of TNF-α and IFN-γ from CAR T cells was measured by ELISA and flow cytometry analysis after three days of stimulation with the indicated HDACi. (D) The surface expression of CD25 on CAR T cells was measured by flow cytometry analysis after three days of stimulation with the indicated HDACi (n=3 combined from 3 independent experiments). (E and F) After three days of pre-treatment with pentanoate, CD19t^+ ROR1-specific CAR T cells were transferred intraperitoneally (i.p) into mice bearing 5-days old PancROR1 tumors. In E, Tumor volume and tumor mass were analyzed (n=3 mice/group/experiment combined from 2 independent experiments). (F) The percentage and total cell number of transferred TNF-α and IFN-γ CD19t^+ ROR1-specific CART cells in the tumor tissue at day 14 after tumor inoculation are shown.

Structure (SMILES): CCCCC(=O)O [pentanoate]
- expression of granzyme B, IFN-γ and Eomes (human CD8+ T lymphocytes): enhancing the expression
- expression of TNF-α and IFN-γ (human CD8+ T lymphocytes; healthy donors): enhancing the expression
- H4 acetylation at the promoter region of Ifnγ, Tbx21 and Eomes [1]: enhance H4 acetylation
- tumor volume and weight ([2]; day 10 following administration of pentanoate-treated CAR T cells): significantly diminished
- frequency and number of IFN-γ+TNF-α+ CAR T cells in tumors ([2]; vs control CAR T lymphocytes): elevated frequency and number
- TNF-α and IFN-γ production of CAR T cells [3]: enhanced
- expression of CD25 on CAR T cells [3]: enhanced
